Results from publication PMC8468439, “Oxazinethione Derivatives as a Precursor to Pyrazolone and Pyrimidine Derivatives: Synthesis, Biological Activities, Molecular Modeling, ADME, and Molecular Dynamics Studies” (Molecules, 2021).
≈ marks a conversion by molar mass, not a printed value.

Legend:
E. coli = assay: Antimicrobial screening, hole-plate and filter disc; assay type: cell-based, Escherichia coli; set-up: key to A (activity): (-) no activity; (+) mild activity with diameter zone of (0.5–0.7 cm); (++) moderate activity with diameter zone of (1.1–1.2 cm); (+++) marked with diameter zone of (1.6–1.8 cm); conditions: for A (activity): zone width of inhibition, compounds dissolved in 10% acetone
Protocol: (§1) All investigations were executed at the Biology department, Faculty of Science, Benha University, Egypt. The antimicrobial activities of all the synthesized molecules were determined in vitro, using the hole-plate and filter disc methodologies. The investigated compounds were dissolved in 10% acetone (v/v). The width of the inhibition zone indicated the potency of the antimicrobial activity: (-) no antimicrobial activity, (+) mild activity with the diameter of the zones equal to (0.5–0.7 cm), (++) moderate activity with the diameter of the zones equal to (1.1–1.2 cm), and (+++) marked activity with the diameter of the zones equal to (1.6–1.8 cm).

A. flavus = assay: as above; assay type: cell-based, Aspergillus flavus; set-up: key to A (activity): (-) no activity; (+) mild activity with diameter zone of (0.5–0.7 cm); (++) moderate activity with diameter zone of (1.1–1.2 cm); (+++) marked with diameter zone of (1.6–1.8 cm); conditions: for A (activity): zone width of inhibition, compounds dissolved in 10% acetone
Protocol: as §1

S. aureus = assay: Antimicrobial screening, hole-plate and filter disc; assay type: cell-based, Staphylococcus aureus; set-up: key to A (activity): (-) no activity; (+) mild activity with diameter zone of (0.5–0.7 cm); (++) moderate activity with diameter zone of (1.1–1.2 cm); (+++) marked with diameter zone of (1.6–1.8 cm); conditions: for A (activity): zone width of inhibition, compounds dissolved in 10% acetone
Protocol: as §1

F. moniliform = assay: as above; assay type: cell-based, Fusarium moniliform; conditions: for A (activity): zone width of inhibition, compounds dissolved in 10% acetone
Protocol: as §1

MCF-7 for breast cancer = assay: SRB cytotoxicity assay; assay type: cell-based; conditions: Homo sapiens, MCF7, 72 h, 3 days
Protocol: (§2) The cells were supplied by the Egyptian Holding Company for Biological Products and Vaccines (VACSERA) and then kept in the tissue culture unit. The growth of the cells was affected in RPMI-1640 medium, supplemented with 10% heat-inactivated FBS, 50 units/mL of penicillin, and […] of streptomycin, and maintained in a humidified atmosphere with 5% carbon dioxide. The cells were maintained as monolayer cultures by serial sub-culturing, with cell culture reagents obtained from Lonza (Basel, Switzerland). The antitumor activities of the complexes were assessed against three cell lines MCF-7 for breast cancer, Ovcar-3 for ovarian cancer, and Hela for cervical cancer. In addition, all the results obtained were compared and validated to the LCC-MK2 normal cell line. In the literature, the sulforhodamine B (SRB) assay method was applied to determine the cytotoxicity, as described in [39]. Exponentially growing cells were collected using 0.25% Trypsin-EDTA and seeded in 96-well plates at 1000–2000 cells/well in RBMI-1640-supplemented medium. The cells were kept in the medium for 24 h and then incubated for 3 days with various concentrations of the copper complexes. Following 3 days of treatment, the cells were fixed with 10% trichloroethanoic acid for 1 h at 4 °C. Wells were stained for 10 min at room temperature with 0.4% SRBC dissolved in 1% acetic acid. The plates were air-dried for 24 h, and the dye was dissolved in Tris-HCl for 5 min with shaking at 1600 rpm. An ELISA microplate reader (ChroMate-4300, FL, USA) was used to assess each well’s optical density (O.D.) at 564 nm. The IC50 values were calculated from a Boltzmann sigmoidal concentration-response curve using the nonlinear regression fitting models (Graph Pad, Prism Version 9).

LCC-MK2 normal cell line = assay: SRB cytotoxicity assay; assay type: cell-based; conditions: 72 h, 3 days
Protocol: as §2

Hela for cervical cancer = assay: SRB cytotoxicity assay; assay type: cell-based; conditions: Homo sapiens, 72 h, 3 days
Protocol: as §2

[1] = system: Ovcar-3 for ovarian cancer; assay: SRB cytotoxicity assay; assay type: cell-based; conditions: Homo sapiens, 72 h, 3 days
Protocol: as §2

Compound: N#CC12C(=O)NC(=O)N=C1N=C(CN1C(=O)c3c(Br)c(Br)c(Br)c(Br)c3C1=O)OC2c1ccccc1 (stereo not shown) [Compound 2a]
- A (activity) (E. coli): -
- A (activity) (A. flavus): -
- melting point: 98 to 100 °C
- Mic (minimum inhibitory concentration) (S. aureus): 125
- A (activity) (S. aureus): + ((+) mild activity with diameter zone of (0.5–0.7 cm))
- Mic (minimum inhibitory concentration) (F. moniliform): 125
- A (activity) (F. moniliform): + ((+) mild activity with diameter zone of (0.5–0.7 cm))

Compound: N#CC12C(=O)NC(=S)N=C1N=C(CN1C(=O)c3c(Br)c(Br)c(Br)c(Br)c3C1=O)OC2c1ccccc1 (stereo not shown) [Compound 2b]
- Mic (minimum inhibitory concentration) (E. coli): 250
- A (activity) (E. coli): + ((+) mild activity with diameter zone of (0.5–0.7 cm))
- A (activity) (A. flavus): -
- IC50 (MCF-7 for breast cancer): 13.8 µg/mL (≈ 18.2 µM)
- IC50 (LCC-MK2 normal cell line): 89.3 µg/mL (≈ 118 µM)
- IC50 (Hela for cervical cancer): 22.8 µg/mL (≈ 30.1 µM)
- IC50 [1]: 15.2 µg/mL (≈ 20.1 µM)
- Mic (minimum inhibitory concentration) (S. aureus): 250
- A (activity) (S. aureus): ++ ((++) moderate activity with diameter zone of (1.1–1.2 cm))
- Mic (minimum inhibitory concentration) (F. moniliform): 125
- A (activity) (F. moniliform): + ((+) mild activity with diameter zone of (0.5–0.7 cm))

Compound: N#CC12C(=N)NN=C1N=C(CN1C(=O)c3c(Br)c(Br)c(Br)c(Br)c3C1=O)OC2c1ccccc1 (stereo not shown) [Compound 3, 2-(tetrabromophalimidmethyl)-6-phenyl-5-yano-1,3-oxazino[4,5-d]-1,2-pyrazole2[H]-3-one]
- Mic (minimum inhibitory concentration) (E. coli): 125
- A (activity) (E. coli): + ((+) mild activity with diameter zone of (0.5–0.7 cm))
- Mic (minimum inhibitory concentration) (A. flavus): 125
- A (activity) (A. flavus): + ((+) mild activity with diameter zone of (0.5–0.7 cm))
- IC50 (MCF-7 for breast cancer): 15.5 µg/mL (≈ 21.7 µM)
- IC50 (LCC-MK2 normal cell line): 206 µg/mL (≈ 289 µM)
- IC50 (Hela for cervical cancer): 9.14 µg/mL (≈ 12.8 µM)
- IC50 [1]: 14.6 µg/mL (≈ 20.4 µM)
- Mic (minimum inhibitory concentration) (S. aureus): 125
- A (activity) (S. aureus): + ((+) mild activity with diameter zone of (0.5–0.7 cm))
- Mic (minimum inhibitory concentration) (F. moniliform): 125
- A (activity) (F. moniliform): + ((+) mild activity with diameter zone of (0.5–0.7 cm))

Compound: N#CC12C(=N)NC(=O)N=C1N=C(CN1C(=O)c3c(Br)c(Br)c(Br)c(Br)c3C1=O)OC2c1ccccc1 (stereo not shown) [Compound 4a]
- Mic (minimum inhibitory concentration) (E. coli): 250
- A (activity) (E. coli): + ((+) mild activity with diameter zone of (0.5–0.7 cm))
- Mic (minimum inhibitory concentration) (A. flavus): 250
- A (activity) (A. flavus): +++ ((+++) marked with diameter zone of (1.6–1.8 cm))
- IC50 (MCF-7 for breast cancer): 21.7 µg/mL (≈ 29.2 µM)
- IC50 (LCC-MK2 normal cell line): 68.9 µg/mL (≈ 92.9 µM)
- IC50 (Hela for cervical cancer): 12.9 µg/mL (≈ 17.4 µM)
- IC50 [1]: 15.9 µg/mL (≈ 21.4 µM)
- A (activity) (S. aureus): -
- Mic (minimum inhibitory concentration) (F. moniliform): 250
- A (activity) (F. moniliform): + ((+) mild activity with diameter zone of (0.5–0.7 cm))

Compound: N#CC12C(=N)NC(=S)N=C1N=C(CN1C(=O)c3c(Br)c(Br)c(Br)c(Br)c3C1=O)OC2c1ccccc1 (stereo not shown) [Compound 4b]
- Mic (minimum inhibitory concentration) (E. coli): 250
- A (activity) (E. coli): + ((+) mild activity with diameter zone of (0.5–0.7 cm))
- A (activity) (A. flavus): -
- IC50 (MCF-7 for breast cancer): 16.6 µg/mL (≈ 21.8 µM)
- IC50 (LCC-MK2 normal cell line): 170 µg/mL (≈ 225 µM)
- IC50 (Hela for cervical cancer): 14.8 µg/mL (≈ 19.5 µM)
- IC50 [1]: 11.2 µg/mL (≈ 14.8 µM)
- Mic (minimum inhibitory concentration) (S. aureus): 250
- A (activity) (S. aureus): ++ ((++) moderate activity with diameter zone of (1.1–1.2 cm))
- Mic (minimum inhibitory concentration) (F. moniliform): 125
- A (activity) (F. moniliform): + ((+) mild activity with diameter zone of (0.5–0.7 cm))

Compound: N#CC12C(=O)NN=C1N=C(CN1C(=O)c3c(Br)c(Br)c(Br)c(Br)c3C1=O)OC2c1ccccc1 (stereo not shown) [Compound 5, 2-(tetrabromophalimidmethyl)-6-phenyl-5-yano-1,3-oxazino[4,5-d]-1,2-pyrazole2[H]-3-imide]
- Mic (minimum inhibitory concentration) (E. coli): 250
- A (activity) (E. coli): ++ ((++) moderate activity with diameter zone of (1.1–1.2 cm))
- Mic (minimum inhibitory concentration) (A. flavus): 250
- A (activity) (A. flavus): +++ ((+++) marked with diameter zone of (1.6–1.8 cm))
- IC50 (MCF-7 for breast cancer): 12.3 µg/mL (≈ 17.2 µM)
- IC50 (LCC-MK2 normal cell line): 191 µg/mL (≈ 267 µM)
- IC50 (Hela for cervical cancer): 5.69 µg/mL (≈ 7.96 µM)
- IC50 [1]: 10.1 µg/mL (≈ 14.1 µM)
- Mic (minimum inhibitory concentration) (S. aureus): 250
- A (activity) (S. aureus): ++ ((++) moderate activity with diameter zone of (1.1–1.2 cm))
- Mic (minimum inhibitory concentration) (F. moniliform): 250
- A (activity) (F. moniliform): + ((+) mild activity with diameter zone of (0.5–0.7 cm))
